Data: patent US20210253518A1, “KINASE INHIBITOR” (NISSAN CHEMICAL CORPORATION, priority 2018, published 2021)

Experiments:
[1] = system: YAP-regulated genes; experiment: DNA microarray gene expression in SKOV3 cells; format: cell-based, human; details: 10 μM
Experimental: According to the method of patent document (WO 2014/017513), a composition of McCoy's 5a medium (manufactured by Sigma-Aldrich) containing 0.015% (w/v) deacylated gellan gum (KELCOGEL CG-LA, manufactured by Sansho Co., Ltd.), 30 ng/mL human HB-EGF (manufactured by PEPROTECH), and 15% (v/v) FBS was prepared. Human ovarian cancer cell line SKOV3 cultured according to the protocol recommended by DS Pharma Biomedical Co., Ltd. was suspended in the medium and seeded on a 6 well plate (manufactured by Corning Incorporated, #3471) at 1,000,000 cells/3.3 mL/well. Successively, k-1:B-1 dissolved in DMSO was added to the cell suspension at a final concentration of 10 μM. After further culturing in a CO2 incubator at 37° C. for 6 or 24 hr, 11 mL of phosphate buffered saline (PBS, manufactured by Sigma-Aldrich Japan) was added to the cell culture medium and the cells were precipitated by a centrifugation treatment (400 G, 3 min). The supernatant was removed, the cells were suspended in PBS (10 mL), and further subjected to a centrifugation treatment (400 G, 5 min) to give cell pellets. Successively, total RNA (ribonucleic acid) was isolated from the obtained cells by using RNAeasy Mini Kit (manufactured by Qiagen). DNA microarray of this RNA was performed by HumanGene 2.0ST Array (manufactured by Affymetrix), and changes in the human gene expression due to the addition of the specific compound were comprehensively analyzed (gene analysis contract service of Kurabo Industries Ltd. was used, product number; GA0312).

[2] = system: mouse partial liver resection model; experiment: Liver weight increase in mouse partial liver resection model; format: in vivo; details: 10 mg/kg intraperitoneally 4 times every 24 hr, about 30% of the liver removed, FIG. 2
Experimental: A partial liver resection model in which the mouse liver was partially resected was prepared as described below, and the liver weight increasing effect of the specific compound was evaluated by comparing the liver weight immediately after the resection with the liver weight 3 days after the resection.
A 0.5 w/v % methylcellulose aqueous solution (0.5% MC, manufactured by FUJIFILM Wako Pure Chemical Corporation) and k-1:B-1, k-1:J-1 were evaluated. k-1:B-1 and k-1:J-1 were suspended in 0.5% MC, and prepared at a final concentration of 1 mg/mL.
Mice, BALB/cAnNCrlCrlj, 5-week-old, male, were purchased from Charles River Laboratories, Japan. In terms of the 0.5% MC administration control group, 0.5% MC 10 mL/kg was administered intraperitoneally once, and 24 hr later, the entire liver was isolated and the liver weight was measured (n=5). […] After that, the abdomen was closed, and 24 hr after the final administration, the entire liver was removed and the liver weight was measured (n=4). In terms of the k-1:B-1 or k-1:J-1 administration-control group, k-1:B-1 or k-1:J-1 10 mg/kg, 10 mL/kg, was intraperitoneally administered once, and 24 hr later, the entire liver was isolated and the liver weight was measured (n=5). […] After that, the abdomen was closed, and 24 hr after the final administration, the entire liver was removed and the liver weight was measured (n=5).

[3] = system: full-thickness skin wound; experiment: Mouse full-thickness skin wound model; format: in vivo; details: 1 mg/mL, 0.04 mL per wound site every 24 hr until day 12, negative control 854.2±119.2
Experimental: A full-thickness skin wound in which the skin on the back of a mouse was partially removed was prepared as described below, and the wound therapy promoting effect of the compound was evaluated by comparing the reduction rate of the wound area.
Compound K-1:J-1 was dissolved in a solvent (10% Pluronic F-68, 2% Propylene Glycol, 20 mM Tris buffer (pH 8.5)) at a concentration of 1 mg/mL, and administered by adding dropwise to the wound site (0.04 mL per one wound site). To the negative control, the solvent alone was administered by dropwise addition.
As the mouse, male BKS.Cg-Dock7m+/+Leprdb/J, 7-week-old, was purchased from CHARLES RIVER LABORATORIES JAPAN, INC. After removing the hair on the back, an 8 mm full-thickness skin wound was prepared using biopsy trepan (Kai Corporation) and protected with a coating material (Tegaderm transparent dressing, 3M). The wound preparation date was set as day 1, and 1 mg/mL compound K-1:J-1 was added dropwise at a dose of 0.04 mL per wound site every 24 hr until day 12. The area of the wound site was measured on days 1, 3, 6, 9, 13. The wound area on day 1 was set to 100%, and the total measured area was calculated as a percentage (%) with respect to the wound preparation date. Conducted in 6 cases in each group.

| Compound | AMOTL2 expression rate when no addition is 1 ([1]; 6 hr later) | ANKRD1 expression rate when no addition is 1 ([1]; 6 hr later) | BIRC2 expression rate when no addition is 1 ([1]; 6 hr later) | CCND1 expression rate when no addition is 1 ([1]; 6 hr later) | CTGF expression rate when no addition is 1 ([1]; 6 hr later) | CYR61 expression rate when no addition is 1 ([1]; 6 hr later) | TGFB2 expression rate when no addition is 1 ([1]; 6 hr later) | AMOTL2 expression rate when no addition is 1 ([1]; 24 hr later) | ANKRD1 expression rate when no addition is 1 ([1]; 24 hr later) | BIRC2 expression rate when no addition is 1 ([1]; 24 hr later) | CCND1 expression rate when no addition is 1 ([1]; 24 hr later) | CTGF expression rate when no addition is 1 ([1]; 24 hr later) | CYR61 expression rate when no addition is 1 ([1]; 24 hr later) | TGFB2 expression rate when no addition is 1 ([1]; 24 hr later) | liver weight ratio after partial liver resection [2] | area under the wound area ratio (Area Under the Curve (AUC)) [3] [%×day] |
| --- | --- | --- | --- | --- | --- | --- | --- | --- | --- | --- | --- | --- | --- | --- | --- | --- |
| CC/C(=N\NC(=O)C(C)Nc1ccccc1)c1ccc(O)c(C)c1O (centres unmarked) [k-1:B-1] | 6.92 | 35.3 | 1.27 | 1.63 | 21.4 | 29.6 | 3.63 | 7.89 | 72.1 | 1.44 | 2.01 | 23.2 | 26.9 | 9.84 | promoting recovery of the liver weight after excision | – |
| CC/C(=N\NC(=O)NCc1cccc(O)c1)c1ccc(O)c(C)c1O [k-1:J-1] | – | – | – | – | – | – | – | – | – | – | – | – | – | – | promoting recovery of the liver weight after excision | 659.6±163.7 |
